These results are taken from ChEMBL document CHEMBL1141913, “Novel 2-aminothiazonaphthalimides as visible light activatable photonucleases: effects of intercalation, heterocyclic-fused area and side chains” (Bioorg Med Chem Lett, 2005).

SMILES strings stand for the structures.

The subject of this experiment is Calf thymus DNA. Briefly: Scatchard binding constant between calf thymus DNA (CT-DNA) measured in 30 mM Tris HCl buffer at pH 7.5. It is filed as nucleic-acid assay. Conditions: Bos taurus.
For the molecule `CN(C)CCN1C(=O)c2cccc3c2c(cc2nc(N)sc23)C1=O`, the Binding constant is 19800 M⁻¹. The figure for `CN(C)CCN1C(=O)c2cccc3cc4nc(N)sc4c(c23)C1=O` is 25600 M⁻¹; for `CN(C)CCCN1C(=O)c2cccc3cc4nc(N)sc4c(c23)C1=O` it is 47300 M⁻¹; for `CN(C)CCCN1C(=O)c2cccc3c2c(cc2nc(N)sc23)C1=O` it is 28700 M⁻¹.
